Measured values from a melting point compilation (Tetko et al.; mined from patent text by program, amines drawn as free bases though some values may be those of a salt).

Row | melting point [°C] | SMILES
1 | 141 to 143 | COc1ccc(-c2nc(CCOc3ccc(CC4OC(=O)NC4=O)cc3)c(C)o2)cc1 (stereo unspecified)
2 | 222 to 226 | N#Cc1ccccc1-c1cccc(-n2cnc3cc(-c4cnco4)ccc32)c1
3 | 127 to 136 | CNC(=O)CN1CCc2cc(Nc3ncc(Cl)c(Nc4cc(Cl)ccc4OC)n3)c(OC)cc2CC1
4 | 194 to 198 | O=C1c2ccccc2C(=O)N1Cc1cc2cc(Cl)cc(Br)c2o1
5 | 54 to 56 | O=C1N(Cc2ccc(OC(F)(F)F)cc2)C(=NCC(F)(F)F)SCN1c1ccccc1
6 | 123 to 127 | O=C(NCc1ccccn1)c1ccc(C=Cc2ccccc2OCc2ccccc2)cc1
7 | 222 to 224 | Cc1ccc(C2=NNC(=O)Cc3cc4c(cc32)OCO4)cc1
8 | 216 to 220 | CC(C)OC(=O)c1ncn2c3cccc(Cl)c3c(=O)n(C)c12
9 | 129 to 130 | COc1cc(CCCC(=O)O)ccc1OCc1nc(-c2ccco2)oc1C
10 | 143 to 145 | CCCn1c(=O)cc(-n2nc(-c3c(-c4ccccc4)nn4ccccc34)ccc2=O)n(CC(=O)OC)c1=O
11 | 162 to 166 | O=C(NCCCN1CCOCC1)Nc1nc2ccc(OCc3c(Cl)cccc3Cl)cc2s1
12 | 89 to 90 | Cc1nn2ccccc2c1C(=O)c1cccnc1
13 | 136 to 137 | Cc1oc(-c2ccccc2)nc1COc1cc(COc2ncccc2CO)on1
14 | 146 to 147 | CC1(C)CCC(C)(C)c2cc(C(O)C#Cc3ccc(C(=O)O)cc3)ccc21 (stereo unspecified)
15 | 132 | O=C(O)Cc1cc(C(=O)c2ccccc2)cc(Br)c1O
16 | 170 | CC(C)(C)OC(=O)Nc1ccc(-c2ccccc2F)cc1NC(=O)CC(=O)c1cc(C#N)ccc1F
17 | 187 | CCc1ccc2c(c1)C=Cc1cc(C)ccc1C2c1cn(-c2ccnc(N(C)CC(=O)O)n2)c(=O)[nH]c1=S (stereo unspecified)
18 | 221 to 226 | NC(=O)NN=Cc1ccc(OCCc2coc(-c3ccccc3)n2)cc1
19 | 39 to 40.8 | C=C[C@H]1OC(C)(C)O[C@@H](CC(=O)OCc2ccccc2)[C@H]1NC(=O)OCc1ccccc1 (relative stereo)

Row | melting point [°C] | SMILES
20 | 121 | CCOC(=O)C1=C(N)N=C(OCC)C(C(=O)OCC)C1c1cccc(Cl)c1 (stereo unspecified)
21 | 230 to 233 | COc1ccc2c(c1)S(=O)(=O)C(C(=O)Nc1ccc(Cl)c(Cl)c1)C(=O)N2C (stereo unspecified)
22 | 132 to 134 | Cc1cccc2c1NC(=O)C(CCCN1CCN(c3cccc(F)c3)CC1)S2 (stereo unspecified)
23 | 126 | CCCCN(C=NC1=C(C(=O)OCC)C(c2ccccc2Cl)C(C(=O)OCC)=C(C)N1)CCCC (stereo unspecified)
24 | 156 to 160 | CCN(CC)CCCN1CCN(c2cc(-c3ccnc(NCc4cccc(OC)c4)n3)cc3ccc(OC)cc23)CC1
25 | 179 to 180 | C=CCn1c(=O)c2c(nc(/C=C/c3cc(OC)c(OC(=O)c4ccccc4)c(OC)c3)n2C)n(CC=C)c1=O
26 | > 300 | c1ccc2c(c1)c1[nH]cnc1c1nnnn21
27 | 147 to 149 | CCCCNc1nn(C(=O)OC)c2c1c(=O)n(CCC)c1ccccc21
28 | 235 to 236 | O=C1c2ccc(F)cc2C(=O)N1CC(=O)N1c2ccccc2N(Cc2ccccc2)C(=O)[C@H]2CCC[C@H]21 (relative stereo)
29 | 178 to 183 | COc1ccc(C(=CNC(=O)c2sc3ccc(C(F)(F)F)cc3c2O)c2ccc(OC)cc2)cc1
30 | 186 to 188 | O=C(O)CCC(=O)c1ccc2oc3ccccc3c2c1
31 | > 270 | CCn1c(=O)c2[nH]c(/C=C/c3ccc(O)cc3)nc2n(CC)c1=O
32 | > 300 | O=C(O)c1ccc(OCc2ccc3ccccc3n2)cc1
33 | 104 | COc1cc2c3c(c1)c(CCN1CCN(c4cc(C)ccn4)CC1)c(C)n3CCC2
34 | 30 | COC1=C(OC)C(=O)C(CCCCCCCCCOC(C)=O)=C(C)C1=O
35 | 57 to 59 | CC(C)(C)OC(=O)NCC(Cl)c1ccccc1 (stereo unspecified)
36 | 114 to 116 | Oc1ccc(Nc2ccn(Cc3ccccc3)n2)cc1
37 | 89.7 to 90.1 | COc1ccc(C(=O)c2ccc(F)cc2)c(F)c1
38 | 142 to 145 | CCOC(=O)CCCCC=Cc1cccc(Oc2cccc(C=O)c2)c1

Row | melting point [°C] | SMILES
39 | 143 to 145 | Cc1nc(N2CCN(Cc3ccc(C(F)(F)F)o3)C2=O)sc1C(=O)NCc1ccccc1
40 | 185 to 187 | COc1ccc(-c2cc3cc(OC)cc(C=NO)c3o2)cc1
41 | 153 to 154 | COc1cc2c(cc1OC)CN(CC(O)CN1CCC(c3noc4cc(F)ccc34)CC1)CC2 (stereo unspecified)
42 | 237 to 239 | O=C(Nc1ccccc1)Nc1cc(Br)nc(Br)c1
43 | 157 to 159 | Nc1nc2ccccc2c2c1ncn2CCOCC#Cc1nccs1
44 | 167 to 168 | CCOC(=O)c1cn(C2CC2)c2c(F)c(F)c(F)cc2c1=O
45 | 109 to 111 | C#CCN(Cc1cc2c(=O)n(C)c(CO)nc2cc1Cl)c1ccc(C(=O)OC(C)(C)C)cc1
46 | 219 to 223 | CNC(=O)c1cc2c(c(F)c1F)N(c1ccc(I)cc1C)COC2=O
47 | 156 to 158 | CCn1ncc2c(NCc3ccco3)c3ccccc3nc21
48 | > 250 | CC1CCc2c(-n3ccnc3)c(F)cc3c(=O)c(C(=O)O)cn1c23 (stereo unspecified)
49 | 154 to 155 | CC(C)(C)c1ccc(CCC(=O)CC2CCCCC2)cc1NC(=O)CC1c2ccccc2Oc2ccccc21
50 | 103 to 105 | C#CC1(O)CCc2c(OC)ccc(OC)c2C1 (stereo unspecified)
51 | 140 to 141 | CCN1c2ncc(COc3ccccc3)cc2C(=O)N(C)c2ccc(Cl)nc21
52 | > 250 | CCOC(=O)c1c(Cl)nc2cc(Cl)c(OC)cc2c1CCl
53 | 151 | CC1CCCC(C)N1S(=O)(=O)N[C@@H](Cc1ccc(Oc2nccc3cnccc23)cc1)C(=O)O (stereo partly specified)
54 | 125 to 127 | COc1ccc(Cl)cc1C(=O)NCCc1ccc(C(C)CC(=O)O)cc1 (stereo unspecified)
55 | 102 to 103 | CCOC(=O)c1nn(-c2ccccc2)c2c1CCCC2
56 | 296 | CC1SC(=O)NN=C1c1ccc2c(c1)C(=Cc1ccccn1)C(=O)N2 (stereo unspecified)
57 | 65 to 68 | CC(=O)N1CCCc2ccc(C(C)NC(=O)C=Cc3ccccc3)cc21 (stereo unspecified)

Further lines, the compound ahead of its results:

Row | SMILES | melting point [°C]
58 | COC(=O)c1ccc([N+](=O)[O-])cc1C | 73.6
59 | COc1ccc(Nc2nc(Cl)nc(NC3CC3)n2)cc1F | 186
60 | CC(C)(C)n1nc(Cc2ccncc2)c(C(N)=O)c1N | 125 to 127
61 | COc1cc(NC(C)=O)cc(C(F)(F)F)c1 | 123 to 124
62 | CCc1cccc(CC)c1NCC(=O)NN | 71 to 73
63 | C=C1C2=C(CCCC2)C(=O)N1c1ccc(Cl)cc1F | 84 to 85.5
64 | CC1(CN2CCN(Cc3ccc(C(F)(F)F)cc3)C(=O)C2)Cn2cc([N+](=O)[O-])nc2O1 (stereo unspecified) | 88 to 93
65 | COC(=O)c1ccc(C(N)=O)cc1Cl | 154 to 156
66 | CN1CCN(c2ccc(C(=O)NCCCCCCCCCO[N+](=O)[O-])cn2)CC1 | 90 to 92
67 | Cn1nc(-c2cc(CO)c(Cl)cc2F)c(Cl)c1C(F)(F)F | 90
68 | COc1cc(N2CCC(=O)CC2)ncn1 | 111 to 114
69 | CNC(=O)c1[nH]c(=O)[nH]c1C | > 300
70 | O=C1OC(c2ccc(F)cc2)c2ncccc21 (stereo unspecified) | 116 to 118
71 | Cc1ncc(CO)c2c1OC(C(F)(F)F)C(C(=O)O)=C2 (stereo unspecified) | 76.1 to 80.1
72 | CCC(Nc1ccncc1)c1ccccc1 (stereo unspecified) | 190 to 192
73 | CS(=O)(=O)c1ccc(-n2nccc2-c2ccc(-c3ccco3)cc2)cc1F | 155 to 156
74 | CCN1CCCC1CNC(=O)c1cc(S(N)(=O)=O)cc2c1OC(C)C2 (stereo unspecified) | 164 to 165
75 | Cc1cc(=O)c(-c2ccc(C#N)cc2)c(C)[nH]1 | 192 to 195
76 | N#Cc1cc(F)c(F)c(Br)c1Cl | 71 to 72.5
77 | CN(c1ccc(Cl)cc1)C1CCN(c2ccc(OC[C@@]3(C)Cn4cc([N+](=O)[O-])nc4O3)cc2)CC1 | 174 to 175
78 | CCOCCCOc1ccc2c(c1)C(N(CC)S(C)(=O)=O)CC(C)(C)O2 (stereo unspecified) | 72 to 74
79 | C[C@H](C/C=C/C=C/C(C)(C)O)[C@H]1CC[C@H]2[C@@H](O)CCC[C@]12C | 110 to 112

Row | SMILES | melting point [°C]
80 | Cc1c(F)cnc(N)c1F | 92 to 93
81 | Cc1nc2c(S(=O)(=O)Cl)cccc2s1 | 100 to 102
82 | O=S(=O)(CCS(=O)(=O)c1nc(-c2ccc(F)cc2)c(-c2ccc(F)cc2)[nH]1)c1nc(-c2ccc(F)cc2)c(-c2ccc(F)cc2)[nH]1 | 246 to 248
83 | CC(=O)NCC1CCC(C(=O)N2CC2C#N)CC1 (stereo unspecified) | 92 to 94
84 | CCc1cc(S(=O)(=O)c2ccc(N)cc2)cc(N2CCCC2)n1 | 154 to 155
85 | c1ccc(CN(c2ccccc2)c2ccccc2)cc1 | 86
86 | CCOc1ccc(C=C(CS)C(=O)NCCC(=O)O)cc1 | 148
87 | Cc1ccc([N+](=O)[O-])cc1S(=O)(=O)n1c(Br)nc(Br)c1C | 187 to 189
88 | O=C1Cc2cc(F)c(N3C(=O)C4=C(CCCC4)C3=O)cc2N1 | 234 to 236
89 | O=C(O)CCCCCCCCCCc1ccc(Cl)cc1 | 93
90 | CN(C)c1ccc(C2OC(C)(C)N=C2c2cccc(Cl)c2)cc1 (stereo unspecified) | 96 to 97
91 | Oc1ccc(CCCCn2ccnc2)cc1 | 124 to 125
92 | NS(=O)(=O)Oc1cccc(I)c1 | 106 to 108
93 | CCOP(=O)(OCC)C(O)c1ccccc1 (stereo unspecified) | 83 to 83.5
94 | Cc1ccc(S(=O)(=O)N2CCCC(S(=O)(=O)c3ccc(F)cc3)C2)cc1 (stereo unspecified) | 186
95 | COc1cc(N)cc2c1nc(C(F)F)n2-c1nc(N2CCOCC2)nc(N2CCN(S(C)(=O)=O)CC2)n1 | 280 to 283
96 | CC(=NO)C(C)(C)NCCCNC(C)(C)C(Cn1cc(C)nc1[N+](=O)[O-])=NO | 140 to 141
97 | N[C@@H]1C(=O)Nc2ccccc2-c2ccccc21 | > 225
98 | N#Cc1cnc(N[C@@H]2CCCc3ccccc32)nc1N | 168
99 | COc1c(F)cc2c(c1F)CC(n1cc[nH]c1=S)CC2 (stereo unspecified) | 228 to 230
100 | c1ccc(NC2=NC3CCCc4cccc(c43)N2)cc1 (stereo unspecified) | 233 to 235
101 | CS(=O)(=O)c1ccc(-c2nn3c4c(oc3c2-c2ccc(F)cc2)CSCC4)cc1 | 178 to 180
